Structures are written as SMILES.

T1 sequence (O95180 whole entry): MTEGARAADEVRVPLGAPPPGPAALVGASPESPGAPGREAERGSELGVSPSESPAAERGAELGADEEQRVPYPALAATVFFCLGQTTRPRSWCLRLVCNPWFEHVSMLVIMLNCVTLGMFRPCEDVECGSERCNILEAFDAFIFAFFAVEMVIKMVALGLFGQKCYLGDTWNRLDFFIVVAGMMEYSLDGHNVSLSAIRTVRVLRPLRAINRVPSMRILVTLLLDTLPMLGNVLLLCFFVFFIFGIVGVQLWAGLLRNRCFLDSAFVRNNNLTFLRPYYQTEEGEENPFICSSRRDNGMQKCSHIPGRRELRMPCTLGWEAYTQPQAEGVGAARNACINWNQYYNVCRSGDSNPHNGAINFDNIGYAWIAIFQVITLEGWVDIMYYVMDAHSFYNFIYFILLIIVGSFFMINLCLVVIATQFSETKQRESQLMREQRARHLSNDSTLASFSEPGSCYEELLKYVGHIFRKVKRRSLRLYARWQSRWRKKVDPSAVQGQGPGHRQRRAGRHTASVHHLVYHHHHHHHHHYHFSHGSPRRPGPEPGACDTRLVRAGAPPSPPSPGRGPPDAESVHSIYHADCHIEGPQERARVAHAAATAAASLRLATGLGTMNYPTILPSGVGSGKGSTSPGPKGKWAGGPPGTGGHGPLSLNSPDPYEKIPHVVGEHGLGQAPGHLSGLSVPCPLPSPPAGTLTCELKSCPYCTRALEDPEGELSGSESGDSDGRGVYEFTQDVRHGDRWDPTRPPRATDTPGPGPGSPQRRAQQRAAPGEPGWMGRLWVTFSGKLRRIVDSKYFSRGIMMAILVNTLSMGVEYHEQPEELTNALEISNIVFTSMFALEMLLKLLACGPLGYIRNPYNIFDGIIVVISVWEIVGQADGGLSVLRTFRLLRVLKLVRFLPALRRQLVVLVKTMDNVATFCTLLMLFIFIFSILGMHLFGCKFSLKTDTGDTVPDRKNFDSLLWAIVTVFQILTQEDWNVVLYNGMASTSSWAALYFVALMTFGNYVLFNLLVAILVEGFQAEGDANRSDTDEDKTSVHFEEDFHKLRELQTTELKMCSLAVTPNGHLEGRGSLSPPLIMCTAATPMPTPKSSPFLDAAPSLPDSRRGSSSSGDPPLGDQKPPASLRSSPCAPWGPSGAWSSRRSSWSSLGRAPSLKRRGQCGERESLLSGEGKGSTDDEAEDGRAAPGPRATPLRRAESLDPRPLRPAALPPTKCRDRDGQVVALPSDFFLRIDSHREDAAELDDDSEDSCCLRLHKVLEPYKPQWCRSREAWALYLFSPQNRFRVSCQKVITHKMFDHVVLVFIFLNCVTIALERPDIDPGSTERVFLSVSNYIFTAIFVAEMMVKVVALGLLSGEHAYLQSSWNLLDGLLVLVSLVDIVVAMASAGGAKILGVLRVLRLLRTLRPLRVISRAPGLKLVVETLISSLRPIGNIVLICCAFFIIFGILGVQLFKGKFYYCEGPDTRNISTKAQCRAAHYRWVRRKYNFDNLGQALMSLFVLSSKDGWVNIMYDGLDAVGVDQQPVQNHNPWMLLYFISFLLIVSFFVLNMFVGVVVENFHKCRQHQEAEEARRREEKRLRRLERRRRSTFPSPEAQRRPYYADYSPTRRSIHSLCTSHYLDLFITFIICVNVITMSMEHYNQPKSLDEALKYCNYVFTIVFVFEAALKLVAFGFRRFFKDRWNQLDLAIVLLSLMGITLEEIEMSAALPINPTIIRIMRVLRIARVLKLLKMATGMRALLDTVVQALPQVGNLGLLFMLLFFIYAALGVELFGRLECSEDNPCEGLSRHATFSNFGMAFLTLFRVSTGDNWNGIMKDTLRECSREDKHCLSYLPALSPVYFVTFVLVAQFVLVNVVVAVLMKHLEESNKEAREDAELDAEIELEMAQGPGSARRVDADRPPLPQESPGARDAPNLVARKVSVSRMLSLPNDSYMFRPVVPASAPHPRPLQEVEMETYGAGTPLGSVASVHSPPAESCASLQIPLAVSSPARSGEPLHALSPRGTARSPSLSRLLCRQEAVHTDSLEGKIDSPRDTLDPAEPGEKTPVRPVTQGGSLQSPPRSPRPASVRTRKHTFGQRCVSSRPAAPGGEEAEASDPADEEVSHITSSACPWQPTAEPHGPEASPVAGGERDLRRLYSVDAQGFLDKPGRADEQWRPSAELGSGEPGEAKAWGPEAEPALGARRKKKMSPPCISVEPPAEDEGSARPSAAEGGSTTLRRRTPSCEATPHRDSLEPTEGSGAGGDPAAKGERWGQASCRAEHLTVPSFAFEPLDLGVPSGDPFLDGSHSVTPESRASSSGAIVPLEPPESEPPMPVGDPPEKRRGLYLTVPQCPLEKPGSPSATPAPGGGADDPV

The first assay addresses T1, human Cav3.2 T-type Ca2+ channel (Homo sapiens, UniProt O95180).
T1 construct: expressed in transfected cells; host or cells: KJMGER8 cells (Namalwa cell-derived cell line)
The assay can be described thus: Inhibitory effect for intracellular calcium response via Cav3.2 T-type Ca2+ channels (FLIPR Calcium 3 Assay Kit). Format: cell-based.
Conditions: not given
For orientation: Calcium assays in cells follow changes in intracellular calcium, usually with a dye or a luminescent sensor.
As to `CC(C)(c1nc2cc(C(=O)NC3CCOCC3)c(Cl)cn2c1CC1CCC(F)(F)CC1)C(F)(F)F` [Compound 115, 6-Chloro-3-(4,4-difluorocyclohexylmethyl)-N-(tetrahydro-2H-pyran-4-yl)-2-(1,1,1-trifluoro-2-methylpropan-2-yl)imidazo[1,2-a]pyridine-7-carboxamide], the IC50 is under 100 nM.
On to `O=C(Nc1ccccc1)c1cc2nc(C(F)(F)F)c(CC3CCC(F)(F)CC3)n2cc1Br` [Compound 117, 6-Bromo-3-(4,4-difluorocyclohexylmethyl)-N-phenyl-2-trifluoromethylimidazo[1,2-a]pyridine-7-carboxamide], for which the IC50 is under 100 nM.
On to `Cc1c(Cl)c(C(=O)NC2CCOCC2)cc2nc(C(F)(F)F)c(CC3CCC(F)(F)CC3)n12` [Compound 124, 6-Chloro-3-(4,4-difluorocyclohexylmethyl)-5-methyl-N-(tetrahydro-2H-pyran-4-yl)-2-trifluoromethylimidazo[1,2-a]pyridine-7-carboxamide], for which the IC50 is under 100 nM.
Still for that read-out and setting: next, `Cc1c(I)c(C(=O)Nc2ccccc2)cc2nc(C(F)(F)F)c(CC3CCC(F)(F)CC3)n12` [Compound 125, 3-(4,4-Difluorocyclohexylmethyl)-6-iodo-5-methyl-N-phenyl-2-trifluoromethylimidazo[1,2-a]pyridine-7-carboxamide]: under 100 nM.
As to `CC(C)c1nc2cc(C(=O)Nc3ccccc3)ccn2c1S(=O)(=O)N(C(C)C)C1CC1` [Compound 130, 3-(N-Cyclopropyl-N-isopropylsulfamoyl)-2-isopropyl-N-phenylimidazo[1,2-a]pyridine-7-carboxamide], the IC50 is under 100 nM.
`CC(C)c1nc2cc(C(=O)Nc3ccccc3)ccn2c1S(=O)(=O)N(C1CC1)C1CC1` [Compound 131, 3-(N,N-Dicyclopropylsulfamoyl)-2-isopropyl-N-phenylimidazo[1,2-a]pyridine-7-carboxamide]: the IC50 is under 100 nM.
Take `CC(C)c1nc2cc(C(=O)N3CCc4ccccc43)ccn2c1S(=O)(=O)N1CCCCC1` [Compound 136, Indolin-1-yl{2-isopropyl-3-(piperidin-1-ylsulfonyl)imidazo[1,2-a]pyridin-7-yl}methanone]: the IC50 is under 100 nM.
On the same count and under the same terms, under `O=C(Nc1ccccc1)c1ccn2c(S(=O)(=O)N3CC(F)(F)C3)c(C3CC3)nc2c1` [Compound 138, 2-Cyclopropyl-3-(3,3-difluoroazetidin-1-ylsulfonyl)-N-phenylimidazo[1,2-a]pyridine-7-carboxamide] stands under 100 nM; under `CN(C(C)(C)C)S(=O)(=O)c1c(C(F)(F)F)nc2cc(C(=O)Nc3ccccc3)ccn12` [Compound 147, 3-(N-tert-Butyl-N-methylsulfamoyl)-N-phenyl-2-trifluoromethylimidazo[1,2-a]pyridine-7-carboxamide], under 100 nM.
Regarding `CC(C)c1nc2cc(C(=O)NC3CC(F)(F)C3)c(Cl)cn2c1S(=O)(=O)N1CC(F)(F)C1` [Compound 151, 6-Chloro-3-(3,3-difluoroazetidin-1-ylsulfonyl)-N-(3,3-difluorocyclobutyl)-2-isopropylimidazo[1,2-a]pyridine-7-carboxamide], the IC50 is under 100 nM.
On to `CC(C)c1nc2cc(C(=O)NC3CCOC(C)(C)C3)c(Cl)cn2c1S(=O)(=O)N1CC(F)(F)C1` (stereo not drawn) [Compound 153, 6-Chloro-3-(3,3-difluoroazetidin-1-ylsulfonyl)-N-(2,2-dimethyltetrahydro-2H-pyran-4-yl)-2-isopropylimidazo[1,2-a]pyridine-7-carboxamide], for which the IC50 is under 100 nM.

The assay is the same for the next values; noted with them: human Cav3.2-expressing KJMGER8 cells (Namalwa-derived); calcium response induced by 5 mmol/L CaCl2; normalised to 3 μmol/L mibefradil; read-out: IC50 for the human Cav3.2 T-type Ca2+ current.
For `C=Cc1cn2c(CC3CCC(F)(F)CC3)c(C(F)(F)F)nc2cc1C(=O)Nc1ccccc1` [Compound 120, 3-(4,4-Difluorocyclohexylmethyl)-N-phenyl-2-trifluoromethyl-6-vinylimidazo[1,2-a]pyridine-7-carboxamide], the IC50 was under 100 nM.
Turning to `Cc1cc(-c2nc3ccccc3[nH]2)cc2nc(C(F)(F)F)c(CC3CCC(F)(F)CC3)n12` [Compound 127, 2-{3-(4,4-Difluorocyclohexylmethyl)-5-methyl-2-trifluoromethylimidazo[1,2-a]pyridin-7-yl}-1H-benzimidazole], the IC50 is under 100 nM.
`CC(C)c1nc2cc(C(=O)Nc3ccccc3)ccn2c1S(=O)(=O)NC(C1CC1)C1CC1` [Compound 129, 3-{N-(Dicyclopropylmethyl)sulfamoyl}-2-isopropyl-N-phenylimidazo[1,2-a]pyridine-7-carboxamide]: the IC50 is under 100 nM.
In the case of `CC(C)c1nc2cc(C(=O)Nc3ccccc3)ccn2c1S(=O)(=O)N(C)c1ccccc1` [Compound 132, 2-Isopropyl-3-(N-methyl-N-phenylsulfamoyl)-N-phenylimidazo[1,2-a]pyridine-7-carboxamide], the IC50 is under 100 nM.
On to `CC(C)c1nc2cc(C(=O)NOCc3ccccc3)ccn2c1S(=O)(=O)N1CC(F)(F)C1` [Compound 135, N-(Benzyloxy)-3-(3,3-difluoroazetidin-1-ylsulfonyl)-2-isopropylimidazo[1,2-a]pyridine-7-carboxamide], for which the IC50 is under 100 nM.
Turning to `CS(=O)(=O)c1nc2cc(C(=O)Nc3ccccc3)ccn2c1S(=O)(=O)N1CCC(F)(F)CC1` [Compound 143, 3-(4,4-Difluoropiperidin-1-ylsulfonyl)-2-(methylsulfonyl)-N-phenylimidazo[1,2-a]pyridine-7-carboxamide], the IC50 is under 100 nM.
Same read-out and setting: under `O=C(Nc1ccccc1)c1ccn2c(S(=O)(=O)N3CC(F)(F)C3)c(C(F)(F)F)nc2c1` [Compound 146, 3-(3,3-Difluoroazetidin-1-ylsulfonyl)-N-phenyl-2-trifluoromethylimidazo[1,2-a]pyridine-7-carboxamide] stands under 100 nM.
`CC(C)c1nc2cc(C(=O)Nc3ccccc3N)c(Cl)cn2c1S(=O)(=O)N1CC(F)(F)C1` [Compound 149, N-(2-Aminophenyl)-6-chloro-3-(3,3-difluoroazetidin-1-ylsulfonyl)-2-isopropylimidazo[1,2-a]pyridine-7-carboxamide]: the IC50 was under 100 nM.
Regarding `CC(C)c1nc2cc(C(=O)NCC3CC3)c(Cl)cn2c1S(=O)(=O)N1CC(F)(F)C1` [Compound 150, 6-Chloro-N-cyclopropylmethyl-3-(3,3-difluoroazetidin-1-ylsulfonyl)-2-isopropylimidazo[1,2-a]pyridine-7-carboxamide], the IC50 is under 100 nM.
For `CC(C)c1nc2cc(C(=O)NOCc3ccccc3)c(Cl)cn2c1S(=O)(=O)N1CC(F)(F)C1` [Compound 152, N-Benzyloxy-6-chloro-3-(3,3-difluoroazetidin-1-ylsulfonyl)-2-isopropylimidazo[1,2-a]pyridine-7-carboxamide], the IC50 was under 100 nM.
Turning to `CC(C)c1nc2cc(C(=O)Nc3ccccc3)c(Cl)cn2c1S(=O)(=O)NC1CC(F)(F)C1` [Compound 154, 6-Chloro-3-{N-(3,3-difluorocyclobutyl)sulfamoyl}-2-isopropyl-N-phenylimidazo[1,2-a]pyridine-7-carboxamide], the IC50 is under 100 nM.
For the molecule `CC(C)c1nc2cc(C(=O)Nc3ccccc3)c(Cl)cn2c1S(=O)(=O)Nc1ccccc1` [Compound 155, 6-Chloro-2-isopropyl-N-phenyl-3-(N-phenylsulfamoyl)imidazo[1,2-a]pyridine-7-carboxamide], the IC50 is under 100 nM.
`CC(C)c1nc2cc(C(=O)Nc3ccccc3)c(Cl)cn2c1S(=O)(=O)NC(C)(C)C` [Compound 156, 3-(N-tert-Butylsulfamoyl)-6-chloro-2-isopropyl-N-phenylimidazo[1,2-a]pyridine-7-carboxamide]: the IC50 is under 100 nM.

In general, IC50 refers to the midpoint of a concentration-inhibition curve.

The values above are taken from patent publication US9000186B2, “Ring-fused heterocyclic derivative” (Kyowa Hakko Kirin Co., Ltd., priority 2011, dated 2015).
